{"source": "patent US20120252729A1", "about": "“PTH-CONTAINING THERAPEUTIC/PROPHYLACTIC AGENT FOR OSTEOPOROSIS, CHARACTERIZED IN THAT PTH IS ADMINISTERED ONCE A WEEK IN A UNIT DOSE OF 100 TO 200 UNITS” (ASAHI KASEI PHARMA CORPORATION, priority 2009, published 2012)", "key": {"[1]": {"test_system": "patients having prednisone-induced osteoporosis complicated by arthralgia", "details": "daily administration; cited from earlier work"}, "[2]": {"test_system": "nausea and vomiting associated with administration of the test drug", "test": "Working Example 2: prescriptions for nausea and vomiting associated with administration of the test drug", "details": "given before test drug", "from_the_text": "The administration period and efficacy of various drugs to treat nausea and vomiting associated with administration of the test drug were studied."}, "[3]": {"details": "PTH 20 μg/day; blood samples 4 to 6 hours after administration; cited from earlier work"}}, "data": [{"compound": "CC[C@H](C)[C@H](NC(=O)[C@H](CCC(=O)O)NC(=O)[C@H](CO)NC(=O)[C@@H](NC(=O)[C@@H](N)CO)C(C)C)C(=O)N[C@@H](CCC(N)=O)C(=O)N[C@@H](CC(C)C)C(=O)N[C@@H](CCSC)C(=O)N[C@@H](Cc1cnc[nH]1)C(=O)N[C@@H](CC(N)=O)C(=O)N[C@@H](CC(C)C)C(=O)NCC(=O)N[C@@H](CCCCN)C(=O)N[C@@H](Cc1cnc[nH]1)C(=O)N[C@@H](CC(C)C)C(=O)N[C@@H](CC(N)=O)C(=O)N[C@@H](CO)C(=O)N[C@@H](CCSC)C(=O)N[C@@H](CCC(=O)O)C(=O)N[C@@H](CCCN=C(N)N)C(=O)N[C@H](C(=O)N[C@@H](CCC(=O)O)C(=O)N[C@@H](Cc1c[nH]c2ccccc12)C(=O)N[C@@H](CC(C)C)C(=O)N[C@@H](CCCN=C(N)N)C(=O)N[C@@H](CCCCN)C(=O)N[C@@H](CCCCN)C(=O)N[C@@H](CC(C)C)C(=O)N[C@@H](CCC(N)=O)C(=O)N[C@@H](CC(=O)O)C(=O)N[C@H](C(=O)N[C@@H](Cc1cnc[nH]1)C(=O)N[C@@H](CC(N)=O)C(=O)N[C@@H](Cc1ccccc1)C(=O)O)C(C)C)C(C)C", "note": "[Forteo, teriparatide (rDNA origin)]", "values": [{"measurement": "Bone strengthening effect compared with Fosamax", "setting": "[1]", "value": "stronger bone strengthening effect than Fosamax"}]}, {"compound": "O=c1[nH]c2ccccc2n1CCCN1CCC(n2c(=O)[nH]c3cc(Cl)ccc32)CC1", "note": "[Nauzelin, domperidone]", "values": [{"measurement": "Effective or ineffective", "setting": "[2]; event: nausea", "value": "Effective"}, {"measurement": "Effective or ineffective", "setting": "[2]; event: vomiting", "value": "Effective"}]}, {"compound": "PTH: PTH (parathyroid hormone) preparation given daily (20 μg/day) in cited osteoporosis trials", "values": [{"measurement": "Patients with hypercalcemia", "setting": "[3]", "value": 11, "unit": "%"}, {"measurement": "Patients with persistent hypercalcemia", "setting": "[3]", "value": 3, "unit": "%"}]}]}
